# Data reported in US11986487B2, “Mixture of HMOS for treating wheat sensitivity” (GLYCOM A/S, priority 2017, dated 2024).
# System: human LS174T cell culture model of goblet cells
# Experiment: Goblet cell gene expression by quantitative RT-PCR
# Assay type: cell-based
# Conditions: 5 mg HMO/ml, compared to control cultures
# Method: 2′-FL and LNnT are tested with respect to their ability to induce MUC2, TFF3, EIMβ, CHST5, and GAL3ST2 expression in the human LS174T cell culture model of goblet cells. The human LS174T cell line is obtained from the American Type Culture Collection (ATCC). LS174T cells are maintained in minimum essential medium (MEM) supplemented according to instructions at 37° C. in air containing 5% of CO2. 2′-FL and LNnT are dissolved in cell culture grade water to the required concentration. The LS174T cells are treated with the HMO solution containing 0 or 5 mg HMO/ml. The LS174T cells are collected and suspended in Trizol reagent and total RNA is isolated using an RNA analysis kit (Qiagen) according to the manufacturer's instructions and the RNA isolates are quantified using Nanodrop analysis (Thermo Fisher Scientific). RNA isolates are reverse transcribed using a high capacity cDNA Reverse Transcription Kit (Applied Biosystems) to create cDNA, which is then used to assess gene expression via quantitative RT-PCR. For the quantitative RT-PCR, specific TaqMAN gene expression assays are obtained from Applied Biosystems, which include expression assays for MUC2, TFF3, CHST5 and GAL3ST2. Quantitative real-time PCR is performed using TaqMAN PCR Master Mix (Applied Biosystems). Reactions are run in duplicates in a 384-well plate using an Applied Biosystems 7900HT Fast Real-Time PCR System. The results are analysed using SDS 2.3 software and calculated by delta Ct method. All samples are normalized to Gus-β expression and fold induction is calculated over untreated controls. Gene expression is expressed as fold increase compared to HMO-free control cells. The experiment is repeated three times.
compound,measurement,value
"CC(=O)N[C@H]1[C@H](O[C@H]2[C@@H](O)[C@@H](CO)O[C@@H](O[C@H]3[C@H](O)[C@@H](O)C(O)O[C@@H]3CO)[C@@H]2O)O[C@H](CO)[C@@H](O[C@@H]2O[C@H](CO)[C@H](O)[C@H](O)[C@H]2O)[C@@H]1O (mixture of isomers) [LNnT, lacto-N-neotetraose]",expression of CHST5,minimal induction
same,expression of GAL3ST2,lack of induction
same,expression of the MUC2 gene,increases
same,expression of the TFF3 gene,increases
2′-fucosyllactose [2′-FL],expression of CHST5,minimal induction
same,expression of GAL3ST2,lack of induction
same,expression of the MUC2 gene,increases
same,expression of the TFF3 gene,increases
